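In this assay, cells in 96-well plates receive the compound at five concentrations for 48 hours. Endpoints are linearly interpolated between the surrounding concentrations. Abbreviation: GI50, concentration required for 50% inhibition of growth.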 Calls of active or inactive are those of the source. Rule as the data show it: active = GI50 up to about 1.1 µM and inactive = higher.
What was measured:
Assay in all cases: DTP human tumour cell line panel, 48 h
[1] = test system: CCRF-CEM
[2] = test system: K562
[3] = test system: 786-0
[4] = test system: TK-10
[5] = test system: NCI-H522
[6] = test system: SK-MEL-2
[7] = test system: SF-268
[8] = test system: SNB-75
[9] = test system: HOP-62
[10] = test system: IGROV-1
[11] = test system: MOLT-4
[12] = test system: NCI-H226
[13] = test system: SK-MEL-28
[14] = test system: ACHN
[15] = test system: MCF7
[16] = test system: SK-OV-3
[17] = test system: OVCAR-5
[18] = test system: MDA-MB-435
[19] = test system: BT-549

| Compound | GI50 [1] | GI50 [2] | GI50 [3] | GI50 [4] | GI50 [5] | GI50 [6] | GI50 [7] | GI50 [8] | GI50 [9] | GI50 [10] | GI50 [11] | GI50 [12] | GI50 [13] | GI50 [14] | GI50 [15] | GI50 [16] | GI50 [17] | GI50 [18] | GI50 [19] |
| --- | --- | --- | --- | --- | --- | --- | --- | --- | --- | --- | --- | --- | --- | --- | --- | --- | --- | --- | --- |
| C/C(=N\Nc1nc2ccccc2[nH]1)c1ccncn1 | 0.0776 µM (active) | 0.681 µM (active) | 0.0693 µM (active) | 3.43 µM (inactive) | 0.104 µM (active) | 0.617 µM (active) | 0.0879 µM (active) | 0.352 µM (active) | 0.0951 µM (active) | 0.103 µM (active) | 0.17 µM (active) | 0.0817 µM (active) | 0.396 µM (active) | 0.0441 µM (active) | 0.152 µM (active) | 0.49 µM (active) | 4.11 µM (inactive) | 0.154 µM (active) | – |
| COC(=O)CCCC1(CCCC(=O)OC)CCCCCCCCC(CCCC(=O)OC)(CCCC(=O)OC)C(=O)C1=O | – | 4.78 µM (inactive) | 17.1 µM (inactive) | > 100 µM (inactive) | 2.24 µM (inactive) | 28.9 µM (inactive) | 19.2 µM (inactive) | 23.9 µM (inactive) | 38.5 µM (inactive) | 18.4 µM (inactive) | – | > 100 µM (inactive) | > 100 µM (inactive) | 40.2 µM (inactive) | 85.5 µM (inactive) | > 100 µM (inactive) | > 100 µM (inactive) | 86.1 µM (inactive) | – |
| CC1CN(c2ccc(Cl)cc2)CC(C)(C)OC(=O)O1 (configuration not stated) | > 100 µM (inactive) | > 100 µM (inactive) | > 100 µM (inactive) | > 100 µM (inactive) | > 100 µM (inactive) | > 100 µM (inactive) | > 100 µM (inactive) | > 100 µM (inactive) | > 100 µM (inactive) | > 100 µM (inactive) | – | > 100 µM (inactive) | > 100 µM (inactive) | > 100 µM (inactive) | – | > 100 µM (inactive) | > 100 µM (inactive) | – | – |
| CCOP(=O)(C=C=C(C)C)OCC | – | > 100 µM (inactive) | > 100 µM (inactive) | > 100 µM (inactive) | 36.4 µM (inactive) | > 100 µM (inactive) | > 100 µM (inactive) | > 100 µM (inactive) | > 100 µM (inactive) | > 100 µM (inactive) | – | > 100 µM (inactive) | > 100 µM (inactive) | > 100 µM (inactive) | > 100 µM (inactive) | > 100 µM (inactive) | > 100 µM (inactive) | > 100 µM (inactive) | – |
| Oc1ccc2oc3c(O)c4ccccc4cc3c2c1 | 1.5 µM (inactive) | 0.0632 µM (active) | 5.93 µM (inactive) | 4.75 µM (inactive) | 1.01 µM (active) | 7.91 µM (inactive) | 5.87 µM (inactive) | – | 35.2 µM (inactive) | 0.851 µM (active) | 1.07 µM (active) | – | 7.24 µM (inactive) | 2.12 µM (inactive) | 3.33 µM (inactive) | 16.2 µM (inactive) | – | 0.948 µM (active) | 5.61 µM (inactive) |
| O=C(Oc1ccc(C(c2c(O)c3ccccc3oc2=O)c2c(O)c3ccccc3oc2=O)cc1)c1ccc(C(=O)c2ccccc2)cc1 | 22.6 µM (inactive) | 22.1 µM (inactive) | 33 µM (inactive) | 17.9 µM (inactive) | 15.4 µM (inactive) | 17.8 µM (inactive) | 25.6 µM (inactive) | 17.7 µM (inactive) | 24.1 µM (inactive) | 21.4 µM (inactive) | 20.7 µM (inactive) | 10.6 µM (inactive) | 13.6 µM (inactive) | 19.3 µM (inactive) | 29.4 µM (inactive) | 16.7 µM (inactive) | 19.4 µM (inactive) | 20.3 µM (inactive) | – |
| CC1(C)OC2C(O)CN3CCS[C@H]3C2O1 (some centres not stated) | > 100 µM (inactive) | > 100 µM (inactive) | > 100 µM (inactive) | > 100 µM (inactive) | > 100 µM (inactive) | > 100 µM (inactive) | > 100 µM (inactive) | > 100 µM (inactive) | > 100 µM (inactive) | > 100 µM (inactive) | > 100 µM (inactive) | > 100 µM (inactive) | > 100 µM (inactive) | > 100 µM (inactive) | – | > 100 µM (inactive) | > 100 µM (inactive) | > 100 µM (inactive) | > 100 µM (inactive) |
| O=C(O)CCSC(=O)Nc1cccc(F)c1 | > 100 µM (inactive) | > 100 µM (inactive) | > 100 µM (inactive) | > 100 µM (inactive) | – | > 100 µM (inactive) | 24.3 µM (inactive) | – | 14.3 µM (inactive) | > 10 µM (inactive) | > 100 µM (inactive) | > 100 µM (inactive) | > 100 µM (inactive) | > 100 µM (inactive) | – | – | > 100 µM (inactive) | – | – |
| Cc1occc(=O)c1O [MALTOL] | > 100 µM (inactive) | > 100 µM (inactive) | > 100 µM (inactive) | > 100 µM (inactive) | > 100 µM (inactive) | > 100 µM (inactive) | > 100 µM (inactive) | > 100 µM (inactive) | > 100 µM (inactive) | > 100 µM (inactive) | > 100 µM (inactive) | > 100 µM (inactive) | > 100 µM (inactive) | > 100 µM (inactive) | > 100 µM (inactive) | – | > 100 µM (inactive) | > 100 µM (inactive) | – |

Reference: ChEMBL document CHEMBL1201862, “PubChem BioAssay data set” (2004)
